Tests used:
[1] = Drug uptake in FAP-positive human U-87 MG cells assessed as binding rate measured after 10 mins; format: ADME, cell-based; conditions: u-87mg atcc
[2] = Drug uptake in FAP-positive human U-87 MG cells assessed as binding rate measured after 60 mins; format: ADME, cell-based; conditions: u-87mg atcc, 1 h
[3] = Drug uptake in FAP-positive human U-87 MG cells assessed as binding rate measured for 4 hrs; format: ADME, cell-based; conditions: u-87mg atcc
[4] = Drug uptake in FAP-positive human U-87 MG cells assessed as binding rate pretreated with excess standard products measured after 60 mins; format: ADME, cell-based; conditions: u-87mg atcc, 1 h
[5] = Drug uptake in FAP-negative human MCF7 cells assessed as binding rate measured after 10 to 240 mins; format: ADME, cell-based; conditions: time 10-240 min
[6] = Cytotoxicity against human U-87 MG cells assessed as cell viability at 12 kBq incubated in radioactive medium for 12 hrs followed by incubation in non-radioactive medium for 24 hrs by CCK8 assay; format: functional, U-87MG ATCC; conditions: time 36 hrs
[7] = Cytotoxicity against human U-87 MG cells assessed as cell viability at 92 kBq incubated in radioactive medium for 12 hrs followed by incubation in non-radioactive medium for 24 hrs by CCK8 assay; format: functional, U-87MG ATCC; conditions: time 36 hrs
[8] = Induction of cell cycle arrest in human U-87 MG cells assessed as proportion of cells at G2/M phase at 23 kBq incubated in radioactive medium for 12 hrs followed by incubation in non-radioactive medium for 24 hrs by PI staining based flow cytometry (reference value: 15.7 +/-3.61%); format: functional, U-87MG ATCC; conditions: time 36 hrs
[9] = Induction of cell cycle arrest in human U-87 MG cells assessed as proportion of cells at G0/G1 phase at 23 kBq incubated in radioactive medium for 12 hrs followed by incubation in non-radioactive medium for 24 hrs by PI staining based flow cytometry (reference value: 69.9 +/-3.76%); format: functional, U-87MG ATCC; conditions: time 36 hrs
[10] = Inhibition of colony formation in human U-87 MG cells assessed as survival fraction at 4.6 kBq incubated in radioactive medium for 12 hrs followed by incubation in non-radioactive medium for 14 days by crystal violet staining based analysis; format: functional, U-87MG ATCC; conditions: time 852 hrs
[11] = Inhibition of colony formation in human U-87 MG cells assessed as survival fraction at 9.2 kBq incubated in radioactive medium for 12 hrs followed by incubation in non-radioactive medium for 14 days by crystal violet staining based analysis; format: functional, U-87MG ATCC; conditions: time 852 hrs
[12] = Inhibition of colony formation in human U-87 MG cells assessed as survival fraction at 18.5 kBq incubated in radioactive medium for 12 hrs followed by incubation in non-radioactive medium for 14 days by crystal violet staining based analysis; format: functional, U-87MG ATCC
[13] = Drug uptake in tumor of BALB/c nude mouse xenografted with human U-87 MG cells at 0.3 MBq, iv measured after 0.5 hrs by gamma-counting analysis; format: ADME, organism-based, Neoplasm; conditions: in vivo
[14] = Drug uptake in tumor of BALB/c nude mouse xenografted with human U-87 MG cells at 0.3 MBq, iv measured after 2 hrs by gamma-counting analysis; format: ADME, organism-based, Neoplasm; conditions: in vivo
[15] = Drug uptake in tumor of BALB/c nude mouse xenografted with human U-87 MG cells at 0.3 MBq, iv measured after 6 hrs by gamma-counting analysis; format: ADME, organism-based, Neoplasm; conditions: in vivo
[16] = Drug uptake in tumor of BALB/c nude mouse xenografted with human U-87 MG cells at 0.3 MBq, it measured after 0.5 hrs by gamma-counting analysis; format: ADME, tissue-based, Neoplasm; conditions: other
[17] = Drug uptake in tumor of BALB/c nude mouse xenografted with human U-87 MG cells at 0.3 MBq, it measured after 2 hrs by gamma-counting analysis; format: ADME, tissue-based, Neoplasm; conditions: other
[18] = Drug uptake in tumor of BALB/c nude mouse xenografted with human U-87 MG cells at 0.3 MBq, it measured after 6 hrs by gamma-counting analysis; format: ADME, Neoplasm; conditions: other
[19] = Drug uptake in liver of BALB/c nude mouse xenografted with human U-87 MG cells at 0.3 MBq, it measured after 0.5 hrs by gamma-counting analysis; format: ADME, tissue-based; conditions: other
[20] = Drug uptake in kidney of BALB/c nude mouse xenografted with human U-87 MG cells at 0.3 MBq, it measured after 0.5 hrs by gamma-counting analysis; format: ADME, tissue-based; conditions: other
[21] = Drug uptake in liver of BALB/c nude mouse xenografted with human U-87 MG cells at 0.3 MBq, iv measured after 0.5 hrs by gamma-counting analysis; format: ADME, organism-based; conditions: in vivo
[22] = Drug uptake in kidney of BALB/c nude mouse xenografted with human U-87 MG cells at 0.3 MBq, iv measured after 0.5 hrs by gamma-counting analysis; format: ADME, organism-based; conditions: in vivo
[23] = Drug uptake in thyroid of BALB/c nude mouse xenografted with human U-87 MG cells at 0.3 MBq, iv by gamma-counting analysis; format: ADME, organism-based, Thyroid gland; conditions: in vivo
[24] = Drug uptake in stomach of BALB/c nude mouse xenografted with human U-87 MG cells at 0.3 MBq, iv by gamma-counting analysis; format: ADME, organism-based; conditions: in vivo
[25] = Drug uptake in thyroid of BALB/c nude mouse xenografted with human U-87 MG cells at 0.3 MBq, it by gamma-counting analysis; format: ADME, tissue-based, Thyroid gland; conditions: other
[26] = Drug uptake in stomach of BALB/c nude mouse xenografted with human U-87 MG cells at 0.3 MBq, it by gamma-counting analysis; format: ADME; conditions: other
[27] = Ratio of drug level in tumor to muscle in BALB/c nude mouse xenografted with human U-87 MG cells at 0.3 MBq, it measured after 2 hrs by gamma-counting analysis; format: ADME, tissue-based; conditions: other
[28] = Ratio of drug level in tumor to blood in BALB/c nude mouse xenografted with human U-87 MG cells at 0.3 MBq, it measured after 2 hrs by gamma-counting analysis; format: ADME, tissue-based; conditions: other
[29] = Ratio of drug level in tumor to liver in BALB/c nude mouse xenografted with human U-87 MG cells at 0.3 MBq, it measured after 2 hrs by gamma-counting analysis; format: ADME, tissue-based; conditions: other
[30] = Ratio of drug level in tumor to kidney in BALB/c nude mouse xenografted with human U-87 MG cells at 0.3 MBq, it measured after 2 hrs by gamma-counting analysis; format: ADME, tissue-based; conditions: other
[31] = Anti-tumor activity against human U-87 MG cells xenografted in BALB/c nude mouse assessed as reduction in tumor volume at 0.18 MBq, it measured on day 15 by electronic caliper analysis; format: functional, U-87MG ATCC
[32] = Anti-tumor activity against human U-87 MG cells xenografted in BALB/c nude mouse assessed as reduction in tumor volume at 0.37 MBq, it measured on day 15 by electronic caliper analysis; format: functional, U-87MG ATCC
[33] = Anti-tumor activity against human U-87 MG cells xenografted in BALB/c nude mouse assessed as reduction in tumor volume at 0.55 MBq, it measured on day 15 by electronic caliper analysis; format: functional, U-87MG ATCC; conditions: time 15 day
[34] = Toxicity in BALB/c nude mouse xenografted with human U-87 MG cells assessed as change in body weight at 0.18 to 0.55 MBq, it; conditions: other, dose 0.18-0.55 MBq
[35] = Toxicity in BALB/c nude mouse xenografted with human U-87 MG cells assessed as kidney morphological changes at 0.55 MBq, it measured after 2 to 12 days by Hematoxylin-Eosin staining based analysis; format: tissue-based; conditions: other, time 2-12 day
[36] = Toxicity in BALB/c nude mouse xenografted with human U-87 MG cells assessed as liver morphological changes at 0.55 MBq, it measured after 2 to 12 days by Hematoxylin-Eosin staining based analysis; format: tissue-based; conditions: other, time 2-12 day
[37] = Toxicity in BALB/c nude mouse xenografted with human U-87 MG cells assessed as stomach morphological changes at 0.55 MBq, it measured after 2 to 12 days by Hematoxylin-Eosin staining based analysis; format: tissue-based; conditions: other, time 2-12 day
[38] = Toxicity in BALB/c nude mouse xenografted with human U-87 MG cells assessed as thyroid morphological changes at 0.55 MBq, it measured after 2 to 12 days by Hematoxylin-Eosin staining based analysis; conditions: other, time 2-12 day
[39] = Hepatotoxicity BALB/c nude mouse xenografted with human U-87 MG cells assessed as change in serum ALT level at 0.55 MBq, it measured after 2 to 12 days; format: toxicity; conditions: other, time 2-12 day
[40] = Renal toxicity BALB/c nude mouse xenografted with human U-87 MG cells assessed as change in BUN level at 0.55 MBq, it measured after 2 to 12 days; conditions: other, time 2-12 day
[41] = Antitumor activity against human U-87 MG cells xenografted in BALB/c nude mouse assessed as Ki67 expression in tumor at 0.55 MBq, it measured after 2 days by immunohistochemical analysis (reference value: 49.8 +/-7.67%); format: functional, U-87MG ATCC; conditions: time 2 day
[42] = Antitumor activity against human U-87 MG cells xenografted in BALB/c nude mouse assessed as proportion of TUNEL-positive cells in tumor at 0.55 MBq, it measured after 2 days by immunohistochemical analysis (reference value: 3.54 +/-2.71%); format: functional, U-87MG ATCC; conditions: time 2 day
[43] = Antitumor activity against human U-87 MG cells xenografted in BALB/c nude mouse assessed as proportion of TUNEL-positive cells in tumor at 0.55 MBq, it measured after 12 days by immunohistochemical analysis (reference value: 3.31 +/-1.13%); format: functional, U-87MG ATCC; conditions: time 12 day
[44] = Stability of the compound in saline measured after 24 hrs by iTLC analysis; format: physicochemical; conditions: read-out: Stability
[45] = Stability of the compound in serum (unknown origin) measured after 24 hrs by iTLC analysis; format: ADME, cell-free; conditions: read-out: Stability
[46] = Anti-tumor activity against human U-87 MG cells xenografted in BALB/c nude mouse assessed as median survival time at 0.18 MBq, it (reference value: 16.5 days); format: functional, U-87MG ATCC
[47] = Anti-tumor activity against human U-87 MG cells xenografted in BALB/c nude mouse assessed as median survival time at 0.37 MBq, it (reference value: 16.5 days); format: functional, U-87MG ATCC
[48] = Anti-tumor activity against human U-87 MG cells xenografted in BALB/c nude mouse assessed as median survival time at 0.55 MBq, it (reference value: 16.5 days); format: functional, U-87MG ATCC

N#C[C@@H]1CC(F)(F)CN1C(=O)CNC(=O)c1ccnc2ccc(OCCCN3CCN(C(=O)c4ccc([211At])cc4)CC3)cc12
Drug uptake [1]: 14.4% | Drug uptake [2]: 24.9% | Drug uptake [3]: Active | Drug uptake [4]: 9.3% | Drug uptake [5]: 4.7% | Activity [6]: 61.9% | Activity [7]: 42.1% | Activity [8]: 62.7% | Activity [9]: 21.9% | Activity [10]: 28.1% | Activity [11]: 8.1% | Activity [12]: 1.97% | Drug uptake [13]: 4.04 % ID/g | Drug uptake [14]: 3.12 % ID/g | Drug uptake [15]: 1.86 % ID/g | Drug uptake [16]: 132.5 % ID/g | Drug uptake [17]: 19.24 % ID/g | Drug uptake [18]: 11.47 % ID/g | Drug uptake [19]: Active | Drug uptake [20]: Active | Drug uptake [21]: Active | Drug uptake [22]: Active | Drug uptake [23]: Active | Drug uptake [24]: Active | Drug uptake [25]: Active | Drug uptake [26]: Active | Ratio [27]: 45.75 | Ratio [28]: 14.17 | Ratio [29]: 11.13 | Ratio [30]: 6.39 | inhibition (INH) [31]: 55% | inhibition (INH) [32]: 70% | inhibition (INH) [33]: 76% | Activity [34]: Non-Toxic | Activity [35]: Non-Toxic | Activity [36]: Non-Toxic | Activity [37]: Non-Toxic | Activity [38]: Non-Toxic | Activity [39]: Non-Toxic | Activity [40]: Non-Toxic | Activity [41]: 17.9% | Activity [42]: 28.7% | Activity [43]: 28.5% | remaining at 24 h [44]: 94.7% | remaining at 24 h [45]: 85.6% | Survival [46]: 24 days | Survival [47]: 30 days | Survival [48]: 33 days

Reference: ChEMBL document CHEMBL5126522, “In vitro and in vivo evaluation of 211At-labeled fibroblast activation protein inhibitor for glioma treatment” (Bioorg Med Chem, 2022)
